Test [1] concerns the target T1, Tyrosine-protein kinase Yes (Homo sapiens, UniProt P07947). In words: Inhibition of Yes1 (unknown origin) by [gamma-33P]-ATP radiolabeled enzyme activity assay.
Test [2] has as its target T1, Tyrosine-protein kinase Yes. The test can be described thus: Inhibition of Yes1 (unknown origin) assessed as kinase-dependent enzymatic production of ADP from ATP using coupled luminescence-based reaction by ADP-Glo kinase assay. In general terms: In ADP-Glo the light output rises with the ADP produced.
Test [3] can be described thus: Antiproliferative activity against human Rh30 cells after 48 hrs by CellTiter-Glo luminescent assay. To be noted: SJRH30, 48 h. A general note: Cellular ATP, detected with luciferase, serves as a proxy for viable cell number.
Another test relates to RD. The test can be described thus: Antiproliferative activity against human RD cells after 48 hrs by CellTiter-Glo luminescent assay.

What is called pIC50 is −log10 of the IC50, conventionally taken in molar units.

pIC50: −log10 of the molar value.

T1 sequence (P07947 whole entry): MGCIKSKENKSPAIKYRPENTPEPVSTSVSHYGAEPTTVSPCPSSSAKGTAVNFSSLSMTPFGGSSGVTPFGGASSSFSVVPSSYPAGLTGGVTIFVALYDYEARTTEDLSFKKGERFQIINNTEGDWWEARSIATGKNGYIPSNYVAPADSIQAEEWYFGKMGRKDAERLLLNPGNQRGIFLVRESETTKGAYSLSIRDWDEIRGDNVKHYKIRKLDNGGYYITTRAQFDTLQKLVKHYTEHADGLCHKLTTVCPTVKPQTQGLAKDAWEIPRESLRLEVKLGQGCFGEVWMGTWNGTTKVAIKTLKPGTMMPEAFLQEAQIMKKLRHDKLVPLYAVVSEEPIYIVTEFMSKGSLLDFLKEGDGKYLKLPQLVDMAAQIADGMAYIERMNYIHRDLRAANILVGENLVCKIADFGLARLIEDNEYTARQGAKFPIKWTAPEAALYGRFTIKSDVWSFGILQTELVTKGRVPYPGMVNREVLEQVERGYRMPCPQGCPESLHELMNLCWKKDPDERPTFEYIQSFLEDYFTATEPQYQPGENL

As for `CN1CCC(CNc2ccc3ncc(-c4cccc(OC(F)(F)F)c4)n3n2)CC1` [SGI-1776], the pIC50 in test [1] is 6.62; in test [2], 5.57.
Consider `CC(C)Oc1cc(Nc2nc(N[C@@H](C)c3ccc(F)cn3)ncc2Cl)n[nH]1`, for which the pIC50 in test [3] is 5.74; in the test with RD, 5.28; in test [1], 8.52; in test [2], 7.41.
In the case of `c1cc(-c2cnn3cc(-c4ccc(OCCN5CCCCC5)cc4)cnc23)ccn1` [DORSOMORPHIN], the pIC50 is 7.53 in test [1] and 6.71 in test [2].

Source of the values: ChEMBL document CHEMBL2407041, “Identification of potent Yes1 kinase inhibitors using a library screening approach” (Bioorg Med Chem Lett, 2013).
